Assays:
[1] = target: human c-MER catalytic domain (Homo sapiens (Human), UniProt Q12866); assay: LanthaScreen TR-FRET kinase assay, c-MER; conditions: read-out: Mer TK inhibition (IC50); Biochemical IC50, TR-FRET, 10 uM ATP
[2] = tested on: CD8-MerTK in Ba/F3-CDM cells; assay: In cell MER kinase assay, Ba/F3-CDM cell proliferation without IL-3 (Celltiter-Glo); format: cell-based, murine; conditions: 48 hours compound treatment, read-out: Cell growth inhibition (GI50)
Procedure, shortened: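 Ba/F3 cells, IL-3-dependent, transfected with CD8-MerTK and grown without IL-3 in DMEM/10% FBS. IL-3-supplemented Ba/F3 cells run in parallel as a cytotoxicity control.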

Chain of human c-MER catalytic domain (Q12866 587-858): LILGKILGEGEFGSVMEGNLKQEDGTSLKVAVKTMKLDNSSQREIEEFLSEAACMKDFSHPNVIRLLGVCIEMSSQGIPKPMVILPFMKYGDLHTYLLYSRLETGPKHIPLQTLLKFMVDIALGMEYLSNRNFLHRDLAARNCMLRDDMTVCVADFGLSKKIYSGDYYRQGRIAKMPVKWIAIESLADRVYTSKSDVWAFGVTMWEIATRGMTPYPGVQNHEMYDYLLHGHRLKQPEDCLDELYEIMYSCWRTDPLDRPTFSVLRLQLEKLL

Structure (SMILES) | IC50 [1] [nM] | GI50 [2] [nM]
CN1CCN(C(C)(C)c2ccc(-c3ccc(CO[C@H]4CCC[C@@H]4NC(=O)c4cc(-c5ccc(F)nc5)cnc4N)cc3)cc2)CC1 [Example 225, 6-amino-6′-fluoro-N-((1S,2S)-2-((4′-(2-(4-methylpiperazin-1-yl)propan-2-yl)-[1,1′-biphenyl]-4-yl)methoxy)cyclopentyl)-[3,3′-bipyridine]-5-carboxamide] | < 10 | 100 to 500
C[C@@H](c1ccc(-c2ccc(CO[C@H]3CCC[C@@H]3NC(=O)c3cc(-c4ccc(F)nc4)cnc3N)cc2)cc1)N1CCN(CCO)CC1 [Example 226, 6-amino-6′-fluoro-N-((1S,2S)-2-((4′-((S)-1-(4-(2-hydroxyethyl)piperazin-1-yl)ethyl)-[1,1′-biphenyl]-4-yl)methoxy)cyclopentyl)-[3,3′-bipyridine]-5-carboxamide] | < 10 | < 100
C[C@H](c1ccc(-c2ccc(CO[C@H]3CCC[C@@H]3NC(=O)c3cc(-c4ccc(F)nc4)cnc3N)cc2)cc1)N1CCN(CCO)CC1 [Example 227, 6-amino-6′-fluoro-N-((1S,2S)-2-((4′-((R)-1-(4-(2-hydroxyethyl)-piperazin-1-yl)ethyl)-[1,1′-biphenyl]-4-yl)methoxy)cyclopentyl)-[3,3′-bipyridine]-5-carboxamide] | < 10 | < 100
Nc1ncc(-c2ccc(F)nc2)cc1C(=O)N[C@H]1CCC[C@@H]1OCc1ccc(-c2ccc(C3(N4CCN(CCO)CC4)CC3)cc2)cc1 [Example 228] | < 10 | 100 to 500
CC(c1ccc(-c2ccc(CO[C@H]3CCC[C@@H]3NC(=O)c3cc(-c4cncc(F)c4)cnc3N)cc2)cc1)N1CCN(C)CC1 (stereo partly drawn) [Example 230, 6-amino-5′-fluoro-N-((1S,2S)-2-((4′-(1-(4-methylpiperazin-1-yl)ethyl)-[1,1′-biphenyl]-4-yl)methoxy)cyclopentyl)-[3,3′-bipyridine]-5-carboxamide] | < 10 | < 100
CC(c1ccc(-c2ccc(CO[C@H]3CCC[C@@H]3NC(=O)c3cc(F)cnc3N)cc2)cc1)N1CCN(C)CC1 (stereo partly drawn) [Example 232, 2-amino-5-fluoro-N-((1S,2S)-2-((4′-(1-(4-methylpiperazin-1-yl)-ethyl)-[1,1′-biphenyl]-4-yl)methoxy)cyclopentyl)nicotinamide] | < 10 | 500 to 1000
CC(c1ccc(-c2ccc(CO[C@H]3CCC[C@@H]3NC(=O)c3cc(C#N)cnc3N)cc2)cc1)N1CCN(C)CC1 (stereo partly drawn) [Example 233, 2-amino-5-cyano-N-((1S,2S)-2-((4′-(1-(4-methylpiperazin-1-yl)-ethyl)-[1,1′-biphenyl]-4-yl)methoxy)cyclopentyl)nicotinamide] | < 10 | 100 to 500
CC(c1ccc(-c2ccc(CO[C@H]3CCC[C@@H]3NC(=O)c3cccnc3N)cc2)cc1)N1CCN(C)CC1 (stereo partly drawn) [Example 235, 2-amino-N-((1S,2S)-2-((4′-(1-(4-methylpiperazin-1-yl)ethyl)-[1,1′-biphenyl]-4-yl)methoxy)cyclopentyl)nicotinamide] | < 10 | 500 to 1000
CC(c1ccc(-c2ccc(CO[C@H]3CCC[C@@H]3NC(=O)c3cc(-c4cncc(F)c4)cnc3N)cc2)cc1)N1CCN(CCO)CC1 (stereo partly drawn) [Example 236, 6-amino-5′-fluoro-N-((1S,2S)-2-((4′-(1-(4-(2-hydroxyethyl)-piperazin-1-yl)ethyl)-[1,1′-biphenyl]-4-yl)methoxy)cyclopentyl)-[3,3′-bipyridine]-5-carboxamide] | < 10 | < 100
CC(c1ccc(-c2ccc(CO[C@H]3CCC[C@@H]3NC(=O)c3cc(-c4ccc(F)nc4)cnc3N)cc2)cc1)N1CCN(CCO)CC1 (stereo partly drawn) [Example 237, 6-amino-6′-fluoro-N-((1S,2S)-2-((4′-(1-(4-(2-hydroxyethyl)-piperazin-1-yl)ethyl)-[1,1′-biphenyl]-4-yl)methoxy)cyclopentyl)-[3,3′-bipyridine]-5-carboxamide] | < 10 | < 100
CC(c1ccc(-c2ccc(CO[C@H]3CCC[C@@H]3NC(=O)c3cc(-c4cccnc4F)cnc3N)cc2)cc1)N1CCN(CCO)CC1 (stereo partly drawn) [Example 238, 6-amino-2′-fluoro-N-((1S,2S)-2-((4′-(1-(4-(2-hydroxyethyl)-piperazin-1-yl)ethyl)-[1,1′-biphenyl]-4-yl)methoxy)cyclopentyl)-[3,3′-bipyridine]-5-carboxamide] | < 10 | < 100
CN1CCC(Cc2ccc(-c3ccc(CO[C@H]4CCC[C@@H]4NC(=O)c4cc(-c5cnn(C)c5)cnc4N)cc3)cc2)CC1 [Example 239, 2-amino-5-(1-methyl-1H-pyrazol-4-yl)-N-((1S,2S)-2-((4′-((1-methylpiperidin-4-yl)methyl)-[1,1′-biphenyl]-4-yl)methoxy)cyclopentyl)nicotinamide] | < 10 | < 100
Cn1cc(-c2cnc(N)c(C(=O)N[C@H]3CCC[C@@H]3OCc3ccc(-c4ccc(CC5CCN(CCO)CC5)cc4)cc3)c2)cn1 [Example 240, 2-amino-N-((1S,2S)-2-((4′-((1-(2-hydroxyethyl)piperidin-4-yl)-methyl)-[1,1′-biphenyl]-4-yl)methoxy)cyclopentyl)-5-(1-methyl-1H-pyrazol-4-yl)-nicotinamide] | < 10 | < 100
COC(=O)CN1CCC(Cc2ccc(-c3ccc(CO[C@H]4CCC[C@@H]4NC(=O)c4cc(-c5cnn(C)c5)cnc4N)cc3)cc2)CC1 [Example 241, Methyl 2-(4-((4′-((((1S,2S)-2-(2-amino-5-(1-methyl-1H-pyrazol-4-yl)nicotinamido)cyclopentyl)oxy)methyl)-[1,1′-biphenyl]-4-yl)methyl)piperidin-1-yl)-acetate] | < 10 | 500 to 1000
Cn1cc(-c2cnc(N)c(C(=O)N[C@H]3CCC[C@@H]3OCc3ccc(-c4ccc(CC5CCN(CC(N)=O)CC5)cc4)cc3)c2)cn1 [Example 242, 2-amino-N-((1S,2S)-2-((4′-((1-(2-amino-2-oxoethyl)piperidin-4-yl)methyl)-[1,1′-biphenyl]-4-yl)methoxy)cyclopentyl)-5-(1-methyl-1H-pyrazol-4-yl)-nicotinamide] | < 10 | < 100
CN(C)CCCOc1ccc(-c2ccc(CO[C@H]3CCC[C@@H]3NC(=O)c3cc(-c4cnn(C)c4)cnc3N)cc2)cc1 [Example 246, 2-amino-N-((1S,2S)-2-((4′-(3-(dimethylamino)propoxy)-[1,1′-biphenyl]-4-yl)methoxy)cyclopentyl)-5-(1-methyl-M-pyrazol-4-yl)nicotinamide] | < 10 | 100 to 500
CN1CCC(Oc2ccc(-c3ccc(CO[C@H]4CCC[C@@H]4NC(=O)c4cc(-c5cnn(C)c5)cnc4N)cc3)cc2)CC1 [Example 247, 2-amino-5-(1-methyl-1H-pyrazol-4-yl)-N-((1S,2S)-2-((4′-((1-methylpiperidin-4-yl)oxy)-[1,1′-biphenyl]-4-yl)methoxy)cyclopentyl)nicotinamide] | < 10 | 100 to 500
Cn1cc(-c2cnc(N)c(C(=O)N[C@H]3CCC[C@@H]3OCc3ccc(C#CCCO)cc3)c2)cn1 [Example 249, 2-amino-N-((1S,2S)-2-((4-(4-hydroxybut-1-yn-1-yl)benzyl)oxy)-cyclopentyl)-5-(1-methyl-1H-pyrazol-4-yl)nicotinamide] | < 10 | > 1000
Cn1cc(-c2cnc(N)c(C(=O)N[C@H]3CCC[C@@H]3OCc3ccc(C#CCCCO)cc3)c2)cn1 [Example 250, 2-amino-N-((1S,2S)-2-((4-(5-hydroxypent-1-yn-1-yl)-benzyl)oxy)-cyclopentyl)-5-(1-methyl-1H-pyrazol-4-yl)nicotinamide] | < 10 | 100 to 500
Cn1cc(-c2cnc(N)c(C(=O)N[C@H]3CCC[C@@H]3OCc3ccc(C#CCCCCO)cc3)c2)cn1 [Example 251, 2-amino-N-((1S,2S)-2-((4-(6-hydroxyhex-1-yn-1-yl)benzyl)oxy)-cyclopentyl)-5-(1-methyl-1H-pyrazol-4-yl)nicotinamide] | < 10 | > 1000
Cc1ccc(CO[C@H]2CCC[C@@H]2NC(=O)c2cc(-c3ccc(C(=O)NC4CCN(C)CC4)cc3)cnc2N)cc1C [Example 318, 2-amino-N-((1S,2S)-2-((3,4-dimethylbenzyl)oxy)cyclopentyl)-5-(4-((1-methylpiperidin-4-yl)carbamoyl)phenyl)nicotinamide] | < 10 | 500 to 1000
Cc1ccc(CO[C@H]2CCC[C@@H]2NC(=O)c2cc(-c3ccc(CN4CCC(N5CCCC5)CC4)c(F)c3)cnc2N)cc1C [Example 325, 2-amino-N-((1S,2S)-2-((3,4-dimethylbenzyl)oxy)cyclopentyl)-5-(3-fluoro-4-((4-(pyrrolidin-1-yl)piperidin-1-yl)methyl)phenyl)nicotinamide] | < 10 | > 1000
Cc1ccc(CO[C@H]2CCC[C@@H]2NC(=O)c2cc(-c3ccc(CN4CCC(O)CC4)cc3)cnc2N)cc1C [Example 328, 2-amino-N-((1S,2S)-2-((3,4-dimethylbenzyl)oxy)cyclopentyl)-5-(4-((4-hydroxypiperidin-1-yl)methyl)phenyl)nicotinamide] | < 10 | 500 to 1000
Cc1ccc(CO[C@H]2CCC[C@@H]2NC(=O)c2cc(-c3ccc(CN4CCC(N5CCOCC5)C4)cc3)cnc2N)cc1C (stereo partly drawn) [Example 337, 2-amino-N-((1S,2S)-2-((3,4-dimethylbenzyl)oxy)cyclopentyl)-5-(4-((3-morpholinopyrrolidin-1-yl)methyl)phenyl)nicotinamide] | < 10 | 500 to 1000
CCc1cc(CO[C@H]2CCC[C@@H]2NC(=O)c2cc(-c3ccc(C(C)(C)N4CCN(CCO)CC4)cc3)cnc2N)ccc1C [Example 360, 2-amino-N-((1S,2S)-2-((3-ethyl-4-methylbenzyl)oxy)cyclopentyl)-5-(4-(2-(4-(2-hydroxyethyl)piperazin-1-yl)propan-2-yl)phenyl)nicotinamide] | < 10 | > 1000

From patent US10125118B2, “Heteroaryl compounds and their use as therapeutic drugs” (Dong-A Socio Holdings Co., Ltd., priority 2015, dated 2018)
